Laboratory results: ChEMBL document CHEMBL4321852, “Structure-Based and Property-Driven Optimization of N-Aryl Imidazoles toward Potent and Selective Oral RORγt Inhibitors” (J Med Chem, 2019)
The source made the active and inactive calls. No cut-off for these calls is given here.

How the values were obtained:
Rattus norvegicus [1] = assay: Anti-inflammatory activity in mBSA/CFA-immunized Lewis rat delayed-type hypersensitivity model assessed as reduction in frequencies of IL-17-producing draining lymph node cells at 1 to 15 mg/kg, po via gavage administered twice daily for 2 days treated prior to mBSA/CFA challenge relative to control; type: functional; parameters: scale not given: the % may be the effect or the level left
[2] = molecular target: T1, Nuclear receptor ROR-beta (Homo sapiens, UniProt Q92753); assay: Inhibition of Gal4-tagged RORbeta LBD (unknown origin) by cell based luciferase reporter gene assay
T1 sequence (Q92753 whole entry): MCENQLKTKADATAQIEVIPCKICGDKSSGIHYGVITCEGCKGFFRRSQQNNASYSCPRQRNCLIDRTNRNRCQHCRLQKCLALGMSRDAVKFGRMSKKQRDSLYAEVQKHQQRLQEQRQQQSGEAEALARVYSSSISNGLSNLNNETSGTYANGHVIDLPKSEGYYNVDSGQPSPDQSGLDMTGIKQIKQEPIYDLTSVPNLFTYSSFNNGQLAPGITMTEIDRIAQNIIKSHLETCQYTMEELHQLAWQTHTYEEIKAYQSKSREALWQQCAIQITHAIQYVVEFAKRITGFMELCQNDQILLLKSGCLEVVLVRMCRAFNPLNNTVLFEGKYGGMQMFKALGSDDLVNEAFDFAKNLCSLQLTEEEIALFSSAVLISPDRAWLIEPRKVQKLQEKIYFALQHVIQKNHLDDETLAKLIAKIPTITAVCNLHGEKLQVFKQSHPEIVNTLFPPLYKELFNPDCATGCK

Rattus norvegicus [3] = assay: Anti-inflammatory activity in mBSA/CFA-immunized Lewis rat delayed-type hypersensitivity model assessed as reduction in ear swelling at 1 to 15 mg/kg, po via gavage administered twice daily for 2 days treated prior to mBSA/CFA challenge measured after up to 50 hrs; type: functional, organism-based
Estrogen receptor = molecular target: T2, Estrogen receptor (Homo sapiens, UniProt P03372); assay: Inhibition of Gal4-tagged ERalpha LBD (unknown origin) by cell based luciferase reporter gene assay
T2 sequence (P03372 whole entry): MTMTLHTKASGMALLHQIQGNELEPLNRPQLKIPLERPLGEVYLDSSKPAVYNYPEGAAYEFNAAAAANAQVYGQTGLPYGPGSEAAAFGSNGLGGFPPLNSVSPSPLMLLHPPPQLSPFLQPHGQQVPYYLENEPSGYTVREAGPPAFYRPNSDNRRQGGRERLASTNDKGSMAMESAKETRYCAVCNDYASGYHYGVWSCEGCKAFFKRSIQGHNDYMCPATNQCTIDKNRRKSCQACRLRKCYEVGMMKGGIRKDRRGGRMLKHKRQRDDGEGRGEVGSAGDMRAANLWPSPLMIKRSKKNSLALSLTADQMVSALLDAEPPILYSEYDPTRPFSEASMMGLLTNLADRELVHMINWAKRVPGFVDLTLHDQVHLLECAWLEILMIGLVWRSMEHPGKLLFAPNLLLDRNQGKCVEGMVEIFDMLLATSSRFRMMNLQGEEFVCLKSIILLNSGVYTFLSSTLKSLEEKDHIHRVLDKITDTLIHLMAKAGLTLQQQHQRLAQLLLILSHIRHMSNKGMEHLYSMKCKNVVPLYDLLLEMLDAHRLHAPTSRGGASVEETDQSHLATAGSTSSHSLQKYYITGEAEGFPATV

[4] = molecular target: T3, Nuclear receptor ROR-gamma (Homo sapiens, UniProt P51449); assay: Inhibition of human GAL4-DBD fused RORgammat LBD expressed in human Jurkat cells assessed as inhibition of receptor transactivation after 24 hrs by luciferase reporter gene assay; type: cell-based
T3 sequence (P51449 whole entry): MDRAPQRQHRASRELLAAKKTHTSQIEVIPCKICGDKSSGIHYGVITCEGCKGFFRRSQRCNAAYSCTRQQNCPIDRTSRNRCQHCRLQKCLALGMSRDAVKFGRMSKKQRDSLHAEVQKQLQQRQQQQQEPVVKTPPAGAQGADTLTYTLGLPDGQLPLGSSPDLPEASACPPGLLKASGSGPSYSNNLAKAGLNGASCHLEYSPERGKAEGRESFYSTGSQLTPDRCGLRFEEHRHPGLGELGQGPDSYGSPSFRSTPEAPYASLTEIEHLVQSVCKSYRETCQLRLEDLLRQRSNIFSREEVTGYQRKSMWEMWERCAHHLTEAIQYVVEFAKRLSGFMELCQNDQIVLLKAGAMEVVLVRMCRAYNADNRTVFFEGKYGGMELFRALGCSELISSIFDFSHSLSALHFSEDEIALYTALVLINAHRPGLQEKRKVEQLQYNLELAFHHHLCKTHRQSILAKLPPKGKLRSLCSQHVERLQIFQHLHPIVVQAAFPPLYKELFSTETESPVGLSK

[5] = Oral bioavailability in DA rat at 3 mg/kg; type: ADME, organism-based; conditions: in vivo
[6] = Dose normalized Cmax in DA rat at 5 mg/kg, po; type: ADME, organism-based; conditions: in vivo
[7] = molecular target: T4, Retinoic acid receptor RXR-alpha (Homo sapiens, UniProt P19793); assay: Inhibition of Gal4-tagged RXRalpha LBD (unknown origin) by cell based luciferase reporter gene assay
T4 sequence (P19793 whole entry): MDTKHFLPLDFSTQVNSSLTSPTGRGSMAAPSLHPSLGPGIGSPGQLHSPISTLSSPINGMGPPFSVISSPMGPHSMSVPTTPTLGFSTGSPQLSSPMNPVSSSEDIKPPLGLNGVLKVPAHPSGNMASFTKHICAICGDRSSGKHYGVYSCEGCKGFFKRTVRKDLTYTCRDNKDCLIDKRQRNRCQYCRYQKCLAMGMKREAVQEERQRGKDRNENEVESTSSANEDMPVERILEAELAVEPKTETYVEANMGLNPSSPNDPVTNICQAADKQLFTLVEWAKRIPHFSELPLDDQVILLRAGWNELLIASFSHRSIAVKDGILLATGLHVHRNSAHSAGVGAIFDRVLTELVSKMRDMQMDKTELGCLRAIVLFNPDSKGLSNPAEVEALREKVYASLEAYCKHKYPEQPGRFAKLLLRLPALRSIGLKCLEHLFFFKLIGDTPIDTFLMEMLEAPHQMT

[8] = Dose normalized AUC in Sprague-Dawley rat at 1 mg/kg, iv; type: ADME, organism-based; conditions: in vivo
[9] = Volume of distribution at steady state in Sprague-Dawley rat at 1 mg/kg, iv; type: ADME, organism-based; conditions: in vivo, read-out: Vdss
Rattus norvegicus [10] = assay: Anti-inflammatory activity in mBSA/CFA-immunized Lewis rat delayed-type hypersensitivity model assessed as reduction in ear swelling at 1 mg/kg, po via gavage administered twice daily for 2 days treated prior to mBSA/CFA challenge measured after up to 50 hrs; type: functional, organism-based

IC50 [2]: > 10 µM
IC50 (Estrogen receptor): > 10 µM
IC50 [4]: 0.151 µM
bioavailability [5]: 90%
Cmax/dose [6]: 2448 nM
IC50 [7]: > 10 µM
AUC/dose [8]: 12680 nM·h
Vd [9]: 1 L/kg
SMILES: Cc1c(C2(C(F)(F)F)CC2)nc(C2CC2)n1-c1c(Cl)ccc(N2CC3(CC(C(=O)O)C3)C2)c1Cl (single isomer, unassigned; atropisomer)
Activity (Rattus norvegicus [1]): 50%
Activity (Rattus norvegicus [3]): Dose-dependent effect
Activity (Rattus norvegicus [10]): inactive
